Experimental data from patent publication US7148193B2, “Compounds that bind to growth hormone receptor” (Antyra, Inc., priority 1997, dated 2006).
Where a SMILES comes first, the peptide text is derived from it. Bridges are numbered along the chain shown (N, C = ends).

Columns and labels:
rGHBP [1] = target: T1, rGHBP (Rattus norvegicus, UniProt P16310); assay: Time-resolved fluorometric detection (TRFD) of specific bLigand binding to rGHBP and its competition; details: TRFD
T1 construct: 1–48 of GHBP; The 3′ oligo used for this reaction encoded the mutation L43R (CTG→AGA); The second PCR reaction amplified the DNA encoding amino acids 38–260; 6xHis; made in house
T1 sequence (P16310 19-278 isoform P16310-2): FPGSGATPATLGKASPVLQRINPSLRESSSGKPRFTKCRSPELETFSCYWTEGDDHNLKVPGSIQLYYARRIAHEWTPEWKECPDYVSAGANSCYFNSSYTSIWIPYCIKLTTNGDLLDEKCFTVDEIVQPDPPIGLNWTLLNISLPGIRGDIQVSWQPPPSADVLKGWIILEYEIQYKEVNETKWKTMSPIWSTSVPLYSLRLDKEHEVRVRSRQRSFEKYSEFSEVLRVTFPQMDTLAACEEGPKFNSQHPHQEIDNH
Protocol: For this invention, saEu forms a ternary complex with bP and rGHBP (i.e., the rGHBP:bP:saEu complex). As described herein, the TRFD assay is performed using biotinylated GH (bGH) as bLigand. Biotinylated H5-mutant peptides bP#447 (SEQ ID NO:11) and bP#418 (SEQ ID NO:12) are also used as bLigand (see below). The TRFD assay described herein faithfully reports the competition of ligand binding to the active site of rGHR. To perform the TRFD assays, soluble rGHBP is attached to the surface of microtiter wells, then incubated with bP. Unbound bP is than washed away and (sa)Eu is added to complex with receptor bound bP. The rGHBP:bP bound (sa)Eu is then converted into its highly fluorescent state and detected by TRFD.
Wells were coated with rGHBP(100 ng/well) overnight as described. ED50 and IC50 were calculated from analysis of specific bLigand binding to rGHBP. Competitors were added 1 hr prior to addition of bLigand as described.
rGHBP (50–200 μg/ml in 50 mM NaHCO3) was coated onto low-fluorescence MaxiSorp (Nunc) plates (100 μl/well) overnight at 4° C. The plates were blocked with PBS containing 2% non-fat milk and 0.05% BSA for 2 hr at room temperature, followed by three PBS washes. For competitions, serial dilutions of unlabelled growth hormone (0.1 nM-100 nM) or MAb 2C3 (0.67–67 nM) were added to the plates (100 μl/well) and incubated at room temperature for 1–2 hr. Biotinylated peptide or biotinylated GH (10× concentrations) were incubated in blocking buffer for 30 min to decrease non-specific binding. Ten microliters of the 10× concentrated material was added to the plates and incubated at room temperature for 1 hr to overnight.
The plates were then washed five times with Tris-buffered saline (pH 7.5) containing 0.1% Tween-20 (TTBS). To each well, 100 μl of europium-labeled streptavidin in DELFIA assay buffer (100 mM Tris-HCl, pH 7.8; 150 mM NaCl; 0.5% BSA; 0.05% bovine Ig; 0.05% NaN3; 0.01% Tween-20) was added and incubated for 1.5 hr at room temperature. The plates were then washed five times with TTBS and tapped dry. Subsequently, 100 μl of DELFIA enhancement solution (100 mM acetone-potassium hydrogen phthalate, pH 3.2; 15 mM 2-naphtyltrifluoroacetate; […] tri(n-octyl)-phosphine oxide; 0.1% Triton X-100) was added to each well, and the plates were shaken for 10 min at room temperature. Fluorescence of each sample well was measured at 615 nm using a DELFIA 1234 fluorometer (EG&G Wallac). General procedure and references as described by Wallac are available in “Lanthanide labeling for time-resolved fluorometry”: Wallac publication 1244–1126-03.

rGHBP [2] = target: T1, rGHBP; assay: BIAcore affinity measurements of bPeptide binding to rGHBP; details: BIAcore appKD and phage competition
Protocol: GHBP was immobilized onto one flow-cell of a CM-5 sensor chip (Biosensor) using amine coupling chemistry and the manufacturer's recommended protocol. An unrelated IgG was immobilized in the same manner to another flow cell of the same chip as a control surface. Increasing concentrations of synthetic peptide were injected over both surfaces, and the binding responses were allowed to come to equilibrium. After subtraction of background binding from the control surface, the results were used to derive an equilibrium dissociation constant using Scatchard analysis.
The rat GHBP (100 μg/ml) was immobilized onto a CM-5 sensor chip using amino coupling chemistry and the manufacturer's recommended protocol. The final surface density was 4000 RU. A monoclonal antibody was immobilized onto another flow cell as a control surface. Peptides (50 μg/ml) were injected at a flow rate of 5 μl/min. Background binding to the control surface was subtracted prior to further analysis.

Compound | binding better than H5WT or bP#445 (rGHBP [1]) | affinity for rGHBP, ranking (rGHBP [2])
CC(C)C[C@@H]1NC(=O)[C@H](Cc2c[nH]c3ccccc23)NC(=O)CNC(=O)[C@@H]2CCCN2C(=O)[C@H](Cc2c[nH]c3ccccc23)NC(=O)[C@H]([C@@H](C)O)NC(=O)[C@H](C(C)C)NC(=O)[C@H](CCC(N)=O)NC(=O)[C@H](Cc2c[nH]c3ccccc23)NC(=O)[C@H](CO)NC(=O)[C@H](CCC(N)=O)NC(=O)[C@@H](NC(=O)[C@H](CC(C)C)NC(=O)[C@H](CC(=O)O)NC(=O)[C@H](CCCCN)NC(=O)[C@H](Cc2ccc(O)cc2)NC(=O)[C@@H](N)CC(=O)O)CSSC[C@@H](C(=O)N[C@@H](C)C(=O)N[C@@H](CCCCN)C(=O)N[C@@H](CCCCN)C(=O)O)NC(=O)[C@H](Cc2c[nH]c3ccccc23)NC(=O)CNC(=O)[C@H](C)NC1=O [#418] (H-DYKDLCQSWQVTWPGWLAGWCAKK-OH; disulfide 6-21; N-terminus and C-terminus assumed) | 10 times | highest affinity
CC(C)C[C@@H]1NC(=O)[C@H](CCCNC(=N)N)NC(=O)[C@H](CCC(N)=O)NC(=O)[C@@H](NC(=O)[C@H](CC(C)C)NC(=O)[C@H](CC(=O)O)NC(=O)[C@H](CCCCN)NC(=O)[C@H](Cc2ccc(O)cc2)NC(=O)[C@@H](N)CC(=O)O)CSSC[C@@H](C(=O)N[C@@H](C)C(=O)N[C@@H](CCCCN)C(=O)N[C@@H](CCCCN)C(=O)O)NC(=O)[C@H](Cc2c[nH]c3ccccc23)NC(=O)CNC(=O)[C@H](CO)NC(=O)[C@H](CC(C)C)NC(=O)[C@H](Cc2c[nH]c3ccccc23)NC(=O)CNC(=O)[C@@H]2CCCN2C(=O)[C@H](Cc2c[nH]c3ccccc23)NC(=O)CNC(=O)[C@H](C(C)C)NC(=O)CNC1=O [#447] | 10 times | highest affinity
